Common to all, as to assay type: cell-based, mouse
Experiment [1] has as its system PI3K. The experiment is described as follows: Surrogate markers for PI3K activation in the MEF cell system. As to conditions: PMA treatment.
The subject of experiment [2] is cSrc. The experiment is described as follows: Immunofluorescence: translocation of cSrc from the perinuclear region to the cell periphery. As to conditions: 100 nM PMA. The method, then: FIG. 2: Inhibition of PI3K blocks translocation of cSrc from the perinuclear region of mouse embryo fibroblast in response to PMA treatment. SYF and p85−/− null cells were transiently transfected with cSrc and labeled for avian cSrc using EC10, an avian-specific monoclonal antibody (1:500). EC10 was visualized with anti-mouse Atexa Fluor 488 (false colored red for consistency). Cells treated with 100 nM PMA (panel b) induced translocation of cSrc to the cell periphery as indicated by the arrows. However, cells treated with 100 nM PMA in conjunction with 6 μM bisindolylmaleimide (panel c) or 10 μM LY (panel d) blocked the translocation of cSrc as indicated by the arrows. […] (n=nucleus) Bars represent 20 μM.
SYF, SYF/cSrc, p85α+/+ and p85−/− cells were cultured in standard culture media. Transient transfections of SYF, SYF/cSrc, p85α+/+ cells for immunofluorescence were carried out using LipofectAMINE™ Reagent (Invitrogen) as per manufacturer's protocol. Briefly, Approximately 5.0-8.0×10^4 cells per well were transfected at 50-70% confluent on coverstips with 2-4 μg of plasmid DNA and incubated for 3-4 hours. Thirty-six hours after transfection, cells were serum starved for 12 hours, treated, and subsequently fixed and permeablized as previously described (Qian, Y. et. al., 1998). Cells were treated with a PKC activator, 100 nM PMA for 5 or 15 minutes or in combination with the following pretreatments; a PKC inhibitor, 6 μM bisindolylmaleimide [I] for six hours; or PI3K inhibitor, 10 μM LY294002 for six hours; 50 nM Wortmannin for 30 minutes; and/or a Src family inhibitor, 5 μM PP1 for six hours. For actin labeling, a 1:500 dilution of TRITC-phalloidin was used as labeled in the figures. Primary antibody concentrations used were diluted in 5% Bovine Serum Albumin (BSA) dissolved in 1× phosphate-buffered saline (PBS): EC10 mAb-1:500; Phospho-Src Family (Y416) pAb-1:250; Anti-PI-3,4,5-P3 mAb-1:100; Anti-AFAP-110 (F1)pAb-1:1000; Anti-cSrc pAb-1:500; Anti-flag-1:1000. […]

The subject of experiment [3] is PI3K. The experiment is described as follows: Immunofluorescence of Ptdlns-3,4,5-P3 production in SYF/cSrc cells. Particulars: 100 nM PMA. The protocol:
SYF/cSrc cells were serum-starved for 24 hours. Cells stimulated with 10% serum (panels c-f), 100 nM PMA for 5 (panels g-h), or 15 minutes (panels i-j); as well as treated with 100 nM PMA in combination with 6 μM bisindolylmaleimide [I] (panels k-I) or 50 nM wortmannin (panels m-n). Cells treated with 100 nM PMA in combination with 5 μM PP1 (panel o-p) and Ptdlns-3,4,5-P3 levels evaluated. Cells were immunolabeled with a PI-3,4,5-P3-specific antibody (Echelon, Inc.;1:100) and TRITC-phalloidin (1:500). Secondary antibody for anti-PI-3,4,5-P3 (1:100) was Alexa IgM 647 anti-mouse (1:200). Bars represent 20 μm.
SYF, SYF/cSrc, p85α+/+ and p85−/− cells were cultured in standard culture media. Transient transfections of SYF, SYF/cSrc, p85α+/+ cells for immunofluorescence were carried out using LipofectAMINE™ Reagent (Invitrogen) as per manufacturer's protocol. Briefly, Approximately 5.0-8.0×10^4 cells per well were transfected at 50-70% confluent on coverstips with 2-4 μg of plasmid DNA and incubated for 3-4 hours. Thirty-six hours after transfection, cells were serum starved for 12 hours, treated, and subsequently fixed and permeablized as previously described (Qian, Y. et. al., 1998). Cells were treated with a PKC activator, 100 nM PMA for 5 or 15 minutes or in combination with the following pretreatments; a PKC inhibitor, 6 μM bisindolylmaleimide [I] for six hours; or PI3K inhibitor, 10 μM LY294002 for six hours; 50 nM Wortmannin for 30 minutes; and/or a Src family inhibitor, 5 μM PP1 for six hours. For actin labeling, a 1:500 dilution of TRITC-phalloidin was used as labeled in the figures. Primary antibody concentrations used were diluted in 5% Bovine Serum Albumin (BSA) dissolved in 1× phosphate-buffered saline (PBS): EC10 mAb-1:500; Phospho-Src Family (Y416) pAb-1:250; Anti-PI-3,4,5-P3 mAb-1:100; Anti-AFAP-110 (F1)pAb-1:1000; Anti-cSrc pAb-1:500; Anti-flag-1:1000. All fluorescent secondary and phalloidin antibodies were diluted 1:200 in 5% BSA, and are labeled according to figure legends. Cells were washed and mounted on slides with Fluoromount-G (Fisher). A Zeiss LSM 510 confocal microscope was used to scan images of about 1 μM in thickness. To prevent cross-contamination between the different fluorochromes, each channel was imaged sequentially using the multitrack recording module before merging the images. For all figures, representative cells are shown (>100 cells examined per image shown).
Ptdlns-3,4,5-P3 production was measured using the anti-Ptdlns-3,4,5-P3 antibody (Echelon, inc.) for analysis by immunofluorescence and contrasted with stress filament integrity, measured using TRITC-phalloidin as previously described (Chen, R. et. al., 2002; Hama, H. et. al., 2004). SYF/cSrc cells were left untreated or treated with serum as controls for PI3K activation. […] In addition, SYF/cSrc cells were stimulated with PMA for 5 or 15 minutes.

Experiment [4] has as its system cSrc. Put plainly: Western blot of phospho-Src family (Y416) after PMA treatment. Particulars: 100 nM PMA 15 min. The method, then:
E) SYF, SYF/cSrc, and p85−/− were treated with 100 nM PMA for 15 minutes, 40 μg cell lysate resolved by SDS-PAGE and western blot analysis performed to evaluate phospho-Src family (Y416)(1:1000) and cSrc (1:500) as described in the methods section. Beta-actin (1:5000) was used as a loading control.
All cells were cultured to 70-80% confluence, serum-starved for 16 hours, and treated as described above. The cells were lysed and western analysis performed as previously described (Guappone, A. C. et. al., 1997). Membranes were probed using the following antibodies diluted in 1× Tris-buffered saline plus 0.1% Tween-20 (TBS-T) containing 5% nonfat milk, except were indicated: 1:10000 AFAP-110 pAb (F1), 1:1000 Phospho-Src family Tyrosine 416 (Cell Signal) in 5% BSA, 1:500 cSrc (clone N-16: Santa Cruz Biotechnology), 1:1000 p85α (BD Biosciences), 1:1000 p110α (BD Biosciences), 1:1000 PKCα (BD Biosciences), and 1:5000 β-actin in 1% BSA (Sigma).
For orientation: A western blot detects proteins with antibodies after separation by electrophoresis.

Turning to `CCCCCCCCCCCCCC(=O)O[C@@H]1[C@@H](C)[C@@]2(O)[C@@H](C=C(CO)C[C@]3(O)C(=O)C(C)=C[C@@H]23)[C@@H]2C(C)(C)[C@]12OC(C)=O` [PMA, Phorbol 12-myristate 13-acetate], in the experiment on PI3K [1], the “Akt phosphorylation on serine 473” value is “could induce an increase” and the “stabilization of HIF-1α” value is “could induce”. For the same molecule, the “translocation of cSrc on PMA treatment” value in the experiment on cSrc [2] (SYF cells transfected with cSrc) was “induced cSrc to translocate from the perinuclear region to the cell periphery”. Also, in the experiment on cSrc [2] (p85−/− cells), the “translocation of cSrc on PMA treatment” value is reported as “cSrc remained in the perinuclear region”. For the same molecule, the “Ptdlns-3,4,5-P3 production” value with PI3K [3] (5 minutes) is given as “able to induce”. In the experiment with PI3K [3] (15 minutes), the “Ptdlns-3,4,5-P3 levels” value is listed as “consistently reduced”. Moreover, the “tyrosine416 phosphorylation of cSrc” value with cSrc [4] (SYF/cSrc cells) is given as “induced”. Also, in the experiment on cSrc [4] (mouse embryo fibroblasts lacking the p85 regulatory subunit), the “cSrc activation (western blot)” value is reported as “failed to induce”.

For the origin of these results see patent publication US20080234232A1, “Methods and compositions for targeting AFAP” (priority 2007, published 2008).
